Experimental data published in patent US20130143929A1, “FUNGICIDAL IMIDAZOLES” (EI DU PONT DE NEMOURS AND COMPANY, priority 2010, published 2013).
Marks after values point to notes of the source that are not given here.

Legend:
Format in all cases: in vivo
[1] = tested on: Puccinia recondite f. sp. tritici (the causal agent of wheat leaf rust); test: Test A: wheat leaf rust, preventive spray on wheat seedlings, visual disease rating; details: for Test A rating (100 = 100% disease control, 0 = no disease control relative to the controls): wheat leaf rust, preventive spray on wheat seedlings; for Test A rating (% disease control, wheat leaf rust): 100 = 100% disease control
Outline: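 This was a preventive test: Puccinia recondite f. sp. tritici inoculum was applied one day after compound spray to run-off. Test suspensions were made in 50/50 acetone/water with 250 ppm surfactant, at 200 ppm (800 g/ha equivalent) or 40 ppm. Visual ratings of % disease control relative to controls were made after 24 h of saturated humidity and 7 growth-chamber days, all at 20° C.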

[2] = tested on: Septoria tritici (the causal agent of wheat leaf blotch); test: Test B: wheat leaf blotch, preventive spray on wheat seedlings, visual disease rating; details: for Test B rating (100 = 100% disease control, 0 = no disease control relative to the controls): wheat leaf blotch, preventive spray on wheat seedlings; for Test B rating (% disease control, wheat leaf blotch): 100 = 100% disease control
Outline: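 Preventive test: Septoria tritici spores applied one day after run-off spraying of seedlings (200 ppm equals 800 g/ha; some tests 40 ppm). After 48 h at 24 °C saturated atmosphere and 19 days at 20 °C, disease scored visually as % control relative to untreated plants.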

[3] = tested on: Botrytis cinerea (the causal agent of tomato Botrytis); test: Test C: tomato Botrytis, preventive spray on tomato seedlings, visual disease rating; details: for Test C rating (100 = 100% disease control, 0 = no disease control relative to the controls): tomato Botrytis, preventive spray on tomato seedlings; for Test C rating (% disease control, tomato Botrytis): 100 = 100% disease control
Outline: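 Preventive test: B. cinerea spore inoculation one day after tomato seedlings were sprayed to run-off with compound suspended in 50/50 acetone–water plus 250 ppm surfactant. Plants held 48 h at 20° C in saturated air, then 3 days at 24° C; visual ratings scored 100 (full control) to 0 versus controls; some entries used 40 ppm.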

[4] = tested on: Blumeria graminis f. sp. tritici (also known as Erysiphe graminis f. sp. tritici, the causal agent of wheat powdery mildew); test: Test D: wheat powdery mildew, preventive spray on wheat seedlings, visual disease rating; details: for Test D rating (100 = 100% disease control, 0 = no disease control relative to the controls): wheat powdery mildew, preventive spray on wheat seedlings; for Test D rating (% disease control, wheat powdery mildew): 100 = 100% disease control
Outline: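 Preventive test: seedlings sprayed to run-off and inoculated with powdery mildew spores one day later. Suspensions were made in 50/50 acetone/water with 250 ppm Trem 014 surfactant (200 ppm equals 800 g/ha). Visual ratings after 8 days at 20 °C give percent disease control versus controls.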

[5] = asterisk: 40 ppm test suspension
[6] = no asterisk: standard test suspension concentration, 0 = no control relative to controls
[7] = no asterisk (standard test suspension concentration, not 40 ppm)
[8] = asterisk: 40 ppm test suspension, 0 = no control

Cc1nc(Br)c(C(O)c2ccc(F)cc2Cl)n1-c1ccc(F)cc1F (racemic) [compound 240]
Test A rating (100 = 100% disease control, 0 = no disease control relative to the controls) [1, 5]: 99* % | Test B rating (100 = 100% disease control, 0 = no disease control relative to the controls) [2, 5]: 100* % | Test C rating (100 = 100% disease control, 0 = no disease control relative to the controls) [3, 5]: 99* % | Test D rating (100 = 100% disease control, 0 = no disease control relative to the controls) [4, 5]: 89* %

Cc1nc(Cl)c(C(O)c2ccc(F)cc2Cl)n1-c1c(F)cc(Br)cc1F (stereo not drawn) [compound 76]
Test A rating (100 = 100% disease control, 0 = no disease control relative to the controls) [1, 5]: 99* % | Test B rating (100 = 100% disease control, 0 = no disease control relative to the controls) [2, 5]: 100* % | Test C rating (100 = 100% disease control, 0 = no disease control relative to the controls) [3, 5]: 0* % | Test D rating (100 = 100% disease control, 0 = no disease control relative to the controls) [4, 5]: 0* %

Cc1nc(C)n(-c2c(F)cc(F)cc2F)c1C(O)c1ccc(F)cc1Cl (stereo not drawn) [compound 169]
Test A rating (100 = 100% disease control, 0 = no disease control relative to the controls) [1, 5]: 100* % | Test B rating (100 = 100% disease control, 0 = no disease control relative to the controls) [2, 5]: 100* % | Test C rating (100 = 100% disease control, 0 = no disease control relative to the controls) [3, 5]: 40* % | Test D rating (100 = 100% disease control, 0 = no disease control relative to the controls) [4, 5]: 0* %

COc1cc(F)c(C(O)c2c(Cl)ncn2-c2ccc(F)cc2Cl)c(F)c1 (racemic) [compound 234]
Test A rating (100 = 100% disease control, 0 = no disease control relative to the controls) [1, 5]: 99* % | Test B rating (100 = 100% disease control, 0 = no disease control relative to the controls) [2, 5]: 79* % | Test C rating (100 = 100% disease control, 0 = no disease control relative to the controls) [3, 5]: 26* % | Test D rating (100 = 100% disease control, 0 = no disease control relative to the controls) [4, 5]: 43* %

Cc1nc(Br)c(C(O)c2ccc(F)cc2F)n1-c1c(F)cccc1Br (stereo not drawn) [compound 393]
Test A rating (% disease control, wheat leaf rust) [1, 6]: 100% | Test B rating (% disease control, wheat leaf blotch) [2, 6]: 100% | Test C rating (% disease control, tomato Botrytis) [3, 6]: 100% | Test D rating (% disease control, wheat powdery mildew) [4, 6]: 97%

OC(c1ccc(F)cc1F)c1c(Br)ncn1-c1ccc(F)cc1Cl (stereo not drawn) [compound 63]
Test A rating (100 = 100% disease control, 0 = no disease control relative to the controls) [1, 7]: 96% | Test B rating (100 = 100% disease control, 0 = no disease control relative to the controls) [2, 7]: 59% | Test C rating (100 = 100% disease control, 0 = no disease control relative to the controls) [3, 7]: 98% | Test D rating (100 = 100% disease control, 0 = no disease control relative to the controls) [4, 7]: 0%

Cc1nc(Cl)c(C(O)c2ccc(F)cc2Br)n1-c1c(F)cccc1Cl (stereo not drawn) [compound 386]
Test A rating (% disease control, wheat leaf rust) [1, 8]: 100* % | Test B rating (% disease control, wheat leaf blotch) [2, 8]: 100* % | Test C rating (% disease control, tomato Botrytis) [3, 8]: 100* % | Test D rating (% disease control, wheat powdery mildew) [4, 8]: 73* %

Cc1nc(Cl)n(-c2ccc(F)cc2Cl)c1C(O)c1c(F)cccc1F (stereo not drawn) [compound 46]
Test A rating (100 = 100% disease control, 0 = no disease control relative to the controls) [1, 7]: 100% | Test B rating (100 = 100% disease control, 0 = no disease control relative to the controls) [2, 7]: 100% | Test C rating (100 = 100% disease control, 0 = no disease control relative to the controls) [3, 7]: 100% | Test D rating (100 = 100% disease control, 0 = no disease control relative to the controls) [4, 7]: 100%

COc1ccc(C(O)c2c(Cl)nc(C)n2-c2c(F)cccc2F)c(F)c1 (stereo not drawn) [compound 56]
Test A rating (100 = 100% disease control, 0 = no disease control relative to the controls) [1, 5]: 100* % | Test B rating (100 = 100% disease control, 0 = no disease control relative to the controls) [2, 5]: 100* % | Test C rating (100 = 100% disease control, 0 = no disease control relative to the controls) [3, 5]: 100* % | Test D rating (100 = 100% disease control, 0 = no disease control relative to the controls) [4, 5]: 13* %

OC(c1c(F)cc(F)cc1F)c1c(Cl)nc(Cl)n1-c1ccc(Cl)cc1Cl (stereo not drawn) [compound 90]
Test A rating (100 = 100% disease control, 0 = no disease control relative to the controls) [1, 7]: 100% | Test B rating (100 = 100% disease control, 0 = no disease control relative to the controls) [2, 7]: 100% | Test C rating (100 = 100% disease control, 0 = no disease control relative to the controls) [3, 7]: 98% | Test D rating (100 = 100% disease control, 0 = no disease control relative to the controls) [4, 7]: 99%

COc1ccc(C(O)c2cnc(C)n2-c2ccc(F)cc2F)c(F)c1 (racemic) [compound 283]
Test A rating (100 = 100% disease control, 0 = no disease control relative to the controls) [1, 5]: 41* % | Test B rating (100 = 100% disease control, 0 = no disease control relative to the controls) [2, 5]: 0* % | Test C rating (100 = 100% disease control, 0 = no disease control relative to the controls) [3, 5]: 0* % | Test D rating (100 = 100% disease control, 0 = no disease control relative to the controls) [4, 5]: 0* %

Cc1nc(Cl)n(-c2ccc(F)cc2Cl)c1C(O)c1ccc(F)cc1F (single isomer, unassigned) [compound 27]
Test A rating (100 = 100% disease control, 0 = no disease control relative to the controls) [1, 7]: 100% | Test B rating (100 = 100% disease control, 0 = no disease control relative to the controls) [2, 7]: 100% | Test C rating (100 = 100% disease control, 0 = no disease control relative to the controls) [3, 7]: 100% | Test D rating (100 = 100% disease control, 0 = no disease control relative to the controls) [4, 7]: 99%
